Results published in patent US7186714B2, “Imidazo[1,2-α]pyridine derivatives for the prophylaxis and treatment of herpes viral infections” (SmithKline Beecham Corporation, priority 2001, dated 2007).

Each compound was assayed on HSV-1 (assay: HSV infection of Vero 76 cells, viral DNA detected by hybridization capture with chemiluminescence). Conditions: Human alphaherpesvirus 1; HSV-1 in Vero 76 cells, MOI=0.001, incubated 40–48 hours with test compound.
Format: cell-based
Experimental: Vero 76 cells were maintained in MEM with Earle's salts, L-glutamine, 8% FBS (Hyclone, A-1111-L) and 100 units/mL Penicillin-100 μg/mL Streptomycin. For assay conditions, FBS was reduced to 2%. Cells are seeded into 96-well tissue culture plates at a density of 5×10^4 cells/well after being incubated for 45 min at 37° C. in the presence of HSV-1 or HSV-2 (MOI=0.001). Test compounds are added to the wells and the plates are incubated at 37° C. for 40–48 hours. Cell lysates are prepared as follows: media was removed and replaced with 150 μL/well 0.2 N NaOH with 1% Igepal CA 630 or NP-40. Plates were incubated up to 14 days at room temperature in a humidified chamber to prevent evaporation.
For the detection probe, a gel-purified, digoxigenin-labeled, 710-bp PCR fragment of the HSV UL-15 sequence was utilized. PCR conditions included 0.5 μM primers, 180 μM dTTP, 20 μM dUTP-digoxigenin (Boehringer Mannheim 1558706), 200 μM each of dATP, dCTP, and dGTP, 1×PCR Buffer II (Perkin Elmer), 2.5 mM MgCl2, 0.025 units/μL of AmpliTaq Gold polymerase (Perkin Elmer), and 5 ng of gel-purified HSV DNA per 100 μL Extension conditions were 10 min at 95° C., followed by 30 cycles of 95° C. for 1 min, 55° C. for 30 sec, and 72° C. for 2 min. The amplification was completed with a 10-min incubation at 72° C. Primers were selected to amplify a 728 bp probe spanning a section of the HSV1 UL15 open reading frame (nucleotides 249–977). Single-stranded transcripts were purified with Promega M13 Wizard kits. The final product was mixed 1:1 with a mixture of 6 M GuSCN, 100 mM EDTA and 200 μg/mL herring sperm DNA and stored at 4° C.
The capture DNA plasmid (HSV UL13 region in pUC) was linearized by cutting with XbaI, denatured for 15 min at 95° C. and diluted immediately into Reacti-Bind DNA Coating Solution (Pierce, 17250, diluted 1:1 with TE buffer, pH 8) at 1 ng/μL 75 μL/well were added to Corning (#3922 or 9690) white 96-well plates and incubated at room temperature for at least 4 hrs before washing twice with 300 μL/well 0.2×SSC/0.05% Tween-20 (SSC/T buffer). The plates were then incubated overnight at room temperature with 150 μL/well 0.2 N NaOH, 1% IGEPAL and 10 μg/mL herring sperm DNA.
Twenty-seven (27) μL of cell lysate was combined with 45 μL of hybridization solution (final concentration: 3M GuSCN, 50 mM EDTA, 100 μg/ml salmon sperm DNA, 5×Denhardt's solution, 0.25×APE, and 5 ng of the digoxigenin-labeled detection probe). APE is 1.5 M NH4-acetate, 0.15 M ammonium phosphate monobasic, and 5 mM EDTA adjusted to pH 6.0. Mineral oil (50 μL) was added to prevent evaporation. The hybridization plates were incubated at 95° C. for 10 minutes to denature the DNA, then incubated at 42° C. overnight. The wells were washed 6× with 300 μL/well SSC/T buffer then incubated with 75 μL/well anti-digoxigenin-HRP-conjugated antibody (Boehringer Mannheim 1207733, 1:5000 in TE) for 30 min at room temperature. The wells were washed 6× with 300 μL/well with PBS/0.05% Tween-20 before 75 μL/well SuperSignal LBA substrate (Pierce) was added. The plates were incubated at room temperature for 30 minutes and chemiluminescence was measured in a Wallac Victor reader.
Nc1cccn2c(-c3ccnc(NC4CCCC4)n3)c(-c3ccc(F)cc3)nc12 [Example 1, 3-[2-(Cyclopentylamino)-4-pyrimidinyl]-2-(4-fluorophenyl)imidazo[1,2-α]pyridin-8-amine] showed an IC50 of 600 nM. Fc1ccc(-c2nc3c(Cl)cccn3c2-c2ccnc(NC3CCCC3)n2)cc1 [Example 2, 4-[8-Chloro-2-(4-fluorophenyl)imidazo[1,2-α]pyridin-3-yl]-N-cyclopentyl-2-pyrimidinamine] was tested, and the IC50 was 3900 nM. Fc1ccc(-c2nc3c(NC4CCCC4)cccn3c2-c2ccnc(NC3CCCC3)n2)cc1 [Example 3, N-Cyclopentyl-3-[2-(cyclopentylamino)-4-pyrimidinyl]-2-(4-fluorophenyl)imidazo[1,2-α]pyridin-8-amine] gave an IC50 of 400 nM. Fc1ccc(-c2nc3c(N4CCCC4)cccn3c2-c2ccnc(NC3CCCC3)n2)cc1 [Example 4, N-Cyclopentyl-4-[2-(4-fluorophenyl)-8-(1-pyrrolidinyl)imidazo[1,2-α]pyridin-3-yl]-2-pyrimidinamine] gave an IC50 of 1400 nM. Work on CCCCNc1cccn2c(-c3ccnc(NC4CCCC4)n3)c(-c3ccc(F)cc3)nc12 [Example 5, N-Butyl-3-[2-(cyclopentylamino)-4-pyrimidinyl]-2-(4-fluorophenyl)imidazo[1,2-α]pyridin-8-amine] yielded an IC50 of 650 nM. COCCNc1cccn2c(-c3ccnc(NC4CCCC4)n3)c(-c3ccc(F)cc3)nc12 [Example 6, 3-[2-(Cyclopentylamino)-4-pyrimidinyl]-2-(4-fluorophenyl)-N-(2-methoxyethyl)imidazo[1,2-α]pyridin-8-amine] was tested, and the IC50 was 340 nM. With CNc1nccc(-c2c(-c3ccc(F)cc3)nc3c(Cl)cccn23)n1 [Example 7, 4-[8-Chloro-2-(4-fluorophenyl)imidazo[1,2-α]pyridin-3-yl]-N-methyl-2-pyrimidinamine] the IC50 was 2400 nM. CNc1nccc(-c2c(-c3ccc(F)cc3)nc3c(NC4CCCC4)cccn23)n1 [Example 8, N-Cyclopentyl-2-(4-fluorophenyl)-3-[2-(methylamino)-4-pyrimidinyl]imidazo[1,2-α]pyridin-8-amine] gave an IC50 greater than 5000 nM. Compound COc1ccc(-c2nc3c(Cl)cccn3c2-c2ccnc(NC3CCCC3)n2)cc1 [Example 9, 4-[8-Chloro-2-(4-methoxyphenyl)imidazo[1,2-α]pyridin-3-yl]-N-cyclopentyl-2-pyrimidinamine] has an IC50 of 1200 nM. With COc1ccc(-c2nc3c(NC4CCCC4)cccn3c2-c2ccnc(NC3CCCC3)n2)cc1 [Example 10, N-Cyclopentyl-3-[2-(cyclopentylamino)-4-pyrimidinyl]-2-(4-methoxyphenyl)imidazo[1,2-α]pyridin-8-amine] the IC50 was 1750 nM. With Oc1ccc(-c2nc3c(NC4CCCC4)cccn3c2-c2ccnc(NC3CCCC3)n2)cc1 [Example 11, 4-{8-(Cyclopentylamino)-3-[2-(cyclopentylamino)-4-pyrimidinyl]imidazo[1,2-α]pyridin-2-yl}phenol] the IC50 was 3300 nM. For COc1cccc(-c2nc3c(Cl)cccn3c2-c2ccnc(NC3CCCC3)n2)c1 [Example 15, 4-[8-Chloro-2-(3-methoxyphenyl)imidazo[1,2-α]pyridin-3-yl]-N-cyclopentyl-2-pyrimidinamine], the IC50 was 2300 nM. For COc1cccc(-c2nc3c(NC4CCCC4)cccn3c2-c2ccnc(NC3CCCC3)n2)c1 [Example 16, N-Cyclopentyl-3-[2-(cyclopentylamino)-4-pyrimidinyl]-2-(3-methoxyphenyl)imidazo[1,2-α]pyridin-8-amine], the IC50 was 370 nM. Oc1cccc(-c2nc3c(NC4CCCC4)cccn3c2-c2ccnc(NC3CCCC3)n2)c1 [Example 17, 3-{8-(Cyclopentylamino)-3-[2-(cyclopentylamino)-4-pyrimidinyl]imidazo[1,2-α]pyridin-2-yl}phenol] showed an IC50 of 3100 nM. C=CCOc1cccc(-c2nc3c(NC4CCCC4)cccn3c2-c2ccnc(NC3CCCC3)n2)c1 [Example 18, 2-[3-(Allyloxy)phenyl]-N-cyclopentyl-3-[2-(cyclopentylamino)-4-pyrimidinyl]imidazo[1,2-α]pyridin-8-amine] was tested, and the IC50 was 340 nM. In the case of Cc1ccc(-c2nc3c(Cl)cccn3c2-c2ccnc(NC3CCCC3)n2)cc1 [Example 19, 4-[8-Chloro-2-(4-methylphenyl)imidazo[1,2-α]pyridin-3-yl]-N-cyclopentyl-2-pyrimidinamine], the IC50 is reported as 3740 nM. Cc1ccc(-c2nc3c(NC4CCCC4)cccn3c2-c2ccnc(NC3CCCC3)n2)cc1 [Example 20, N-Cyclopentyl-3-[2-(cyclopentylamino)-4-pyrimidinyl]-2-(4-methylphenyl)imidazo[1,2-α]pyridin-8-amine] showed an IC50 of 710 nM. Compound COCCNc1cccn2c(-c3ccnc(NC4CCCC4)n3)c(-c3ccc(C)cc3)nc12 [Example 21, 3-[2-(Cyclopentylamino)-4-pyrimidinyl]-N-(2-methoxyethyl)-2-(4-methylphenyl)imidazo[1,2-α]pyridin-8-amine] has an IC50 of 640 nM. Cc1ccc(-c2nc3c(N4CCOCC4)cccn3c2-c2ccnc(NC3CCCC3)n2)cc1 [Example 22, N-Cyclopentyl-4-[2-(4-methylphenyl)-8-(4-morpholinyl)imidazo[1,2-α]pyridin-3-yl]-2-pyrimidinamine] gave an IC50 of 840 nM. With Clc1cccn2c(-c3ccnc(NC4CC4)n3)c(-c3ccc4ccccc4c3)nc12 [Example 23, 4-[8-Chloro-2-(2-naphthyl)imidazo[1,2-α]pyridin-3-yl]-N-cyclopropyl-2-pyrimidinamine] the IC50 was 210 nM. For c1ccc2cc(-c3nc4c(NC5CC5)cccn4c3-c3ccnc(NC4CC4)n3)ccc2c1 [Example 24, N-Cyclopropyl-3-[2-(cyclopropylamino)-4-pyrimidinyl]-2-(2-naphthyl)imidazo[1,2-α]pyridin-8-amine], the IC50 was 560 nM. Work on N#Cc1ccc(-c2nc3c(Cl)cccn3c2-c2ccnc(NC3CCCC3)n2)cc1 [Example 25, 4-{8-Chloro-3-[2-(cyclopentylamino)-4-pyrimidinyl]imidazo[1,2-α]pyridin-2-yl}benzonitrile] yielded an IC50 of 300 nM. N#Cc1ccc(-c2nc3c(NC4CCCC4)cccn3c2-c2ccnc(NC3CCCC3)n2)cc1 [Example 26, 4-{8-(Cyclopentylamino)-3-[2-(cyclopentylamino)-4-pyrimidinyl]imidazo[1,2-α]pyridin-2-yl}benzonitrile] gave an IC50 of 310 nM. N#Cc1ccc(-c2nc3c(N4CCOCC4)cccn3c2-c2ccnc(NC3CCCC3)n2)cc1 [Example 27, 4-[3-[2-(Cyclopentylamino)-4-pyrimidinyl]-8-(4-morpholinyl)-imidazo[1,2-α]pyridin-2-yl]benzonitrile] was tested, and the IC50 was 200 nM. NC(=O)c1ccc(-c2nc3c(N4CCOCC4)cccn3c2-c2ccnc(NC3CCCC3)n2)cc1 [Example 28, 4-[3-[2-(Cyclopentylamino)-4-pyrimidinyl]-8-(4-morpholinyl)imidazo[1,2-α]pyridin-2-yl]benzamide] showed an IC50 of 6300 nM. NC(=O)c1ccc(-c2nc3c(NC4CCCC4)cccn3c2-c2ccnc(NC3CCCC3)n2)cc1 [Example 29, 4-{8-(Cyclopentylamino)-3-[2-(cyclopentylamino)-4-pyrimidinyl]imidazo[1,2-α]pyridin-2-yl}benzamide] was tested, and the IC50 was greater than 5000 nM. Compound O=[N+]([O-])c1cccc(-c2nc3c(Cl)cccn3c2-c2ccnc(NC3CCCC3)n2)c1 [Example 30, N-{4-[8-Chloro-2-(3-nitrophenyl)imidazo[1,2-α]pyridin-3-yl]-2-pyrimidinyl}-N-cyclopentylamine] has an IC50 of 1600 nM. For O=[N+]([O-])c1cccc(-c2nc3c(N4CCOCC4)cccn3c2-c2ccnc(NC3CCCC3)n2)c1 [Example 31, N-Cyclopentyl-4-[8-(4-morpholinyl)-2-(3-nitrophenyl)imidazo[1,2-α]pyridin-3-yl]-2-pyrimidinamine], the IC50 was 1200 nM. Compound Nc1cccc(-c2nc3c(Cl)cccn3c2-c2ccnc(NC3CCCC3)n2)c1 [Example 32, 4-[2-(3-Aminophenyl)-8-chloroimidazo[1,2-α]pyridin-3-yl]-N-cyclopentyl-2-pyrimidinamine] has an IC50 of 3300 nM.
